Settings: 101.33 kPa, Liquid

NC=O [formamide]
Settings | viscosity [mPa·s]
298.15 K | 3.23
303.15 K | 2.95
308.15 K | 2.67
313.15 K | 2.43
318.15 K | 2.2
323.15 K | 1.99
328.15 K | 1.82
333.15 K | 1.69
338.15 K | 1.58
343.15 K | 1.52
348.15 K | 1.49

From the NIST ThermoML archive (doi:10.1021/je500284p)
